Results reported in ChEMBL document CHEMBL1131680, “Structure-based design of diaminopyranosides as a novel inhibitor core unit of HIV proteases” (Bioorg Med Chem Lett, 1999).

What follows are molecules tested against Human immunodeficiency virus type 1 protease (Human immunodeficiency virus 1, UniProt Q72874) (assay: Inhibitory concentration required to inhibit hydrolytic activity of recombinant HIV-1 PR (human immunodeficiency virus protease)).

`[N-]=[N+]=NC1C(N)C(OCc2ccccc2)OC(CO)C1OCc1ccccc1` (stereo not drawn) and `NC1C(OCc2ccccc2)OC(CO)C(OCc2ccccc2)C1N` (stereo not drawn) cannot be ordered by IC50: over 1 µM for the first, 205 µM for the second.

With `NC1C(OCc2ccccc2)OC(COC(=O)Nc2ccccc2)C(OCc2ccccc2)C1N` (stereo not drawn) the IC50 was 28 µM.
